In this experiment the target is VMAT2 (Homo sapiens (Human), UniProt Q05940). Nature of the experiment: VMAT2 radioligand binding assay: competition against 3H-dihydrotetrabenezine on human platelet homogenate (modified procedure). The note with it: 10 nM 3H-dihydrotetrabenezine, 25° C., 90 minutes. On the procedure: Examples of techniques for determining the capability of a compound to inhibit VMAT2 are provided below. The procedure is adapted from that described previously (see, e.g., Near, (1986), Mol. Pharmacol. 30: 252-57; Teng, et al., J. Neurochem. 71, 258-65, 1998). Homogenates from human platelets or Sprague-Dawley rat forebrain were prepared by homogenization and then washed by centrifugation as described previously (see, e.g., Hoare et al., (2003) Peptides 24:1881-97). […] Following incubation at 25° C. for two hours, bound radioligand was collected by rapid filtration onto GF/B glass fiber filters using a Unifilter-96 Harvester (PerkinElmer). Filter plates were pre-treated for 10 minutes with 0.1% polyethylenimine, and following harvesting the filter plates were washed with 800 μl VMAT2 binding buffer. Bound radioligand was quantified by scintillation counting using a Topcount NXT (PerkinElmer).
VMAT2, sequence (Q05940 whole entry): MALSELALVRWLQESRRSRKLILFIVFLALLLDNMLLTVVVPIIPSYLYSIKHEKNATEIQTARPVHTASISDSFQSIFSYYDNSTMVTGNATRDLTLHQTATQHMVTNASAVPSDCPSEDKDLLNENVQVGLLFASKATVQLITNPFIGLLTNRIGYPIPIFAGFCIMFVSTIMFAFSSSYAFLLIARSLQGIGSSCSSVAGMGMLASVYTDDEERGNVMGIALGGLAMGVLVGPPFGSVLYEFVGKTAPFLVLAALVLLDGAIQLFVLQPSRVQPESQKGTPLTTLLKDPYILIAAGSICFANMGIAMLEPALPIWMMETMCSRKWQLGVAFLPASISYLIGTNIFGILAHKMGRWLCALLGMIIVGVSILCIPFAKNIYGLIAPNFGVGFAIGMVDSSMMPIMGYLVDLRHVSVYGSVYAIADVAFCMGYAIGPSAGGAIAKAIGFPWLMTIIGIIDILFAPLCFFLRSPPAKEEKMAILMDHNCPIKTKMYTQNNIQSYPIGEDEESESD
Following incubation at 25° C. for 90 minutes, bound radioligand was collected by rapid filtration onto GF/B glass fiber filters using a Unifilter-96 Harvester (PerkinElmer). Filter plates were pre-treated with 0.1% polyethylenimine and allowed to dry overnight, and following harvesting the filter plates were washed with 800 μl VMAT2 binding buffer. Bound radioligand was quantified by scintillation counting using a Topcount NXT (PerkinElmer).

A value given as a limit tells only on which side of the number the result lay.

The term Ki denotes a measure of affinity in units of concentration, obtained from inhibition or displacement.

Regarding `CCN1C[C@@H]2c3cc(OC)c(OC)cc3CCN2C[C@H]1CC(C)C` [Compound 2-1, (3R,11bS)-2-ethyl-9,10-dimethoxy-3-(2-methylpropyl)-1H,2H,3H,4H,6H,7H,11bH-piperazino[2,1-a]isoquinoline], the Ki fell in the range of 10 to 500 nM.
In turn, `COc1cc2c(cc1OC)[C@H]1CN(C)[C@H](CC(C)C)CN1CC2` [Compound 2-2, (3R,11bS)-9,10-dimethoxy-2-methyl-3-(2-methylpropyl)-1H,2H,3H,4H,6H,7H,11bH-piperazino[2,1-a]isoquinoline] came in with a Ki of 10 to 500 nM.
As for `COc1cc2c(cc1OC)[C@H]1CN(CC(C)C)[C@H](CC(C)C)CN1CC2` [Compound 2-3, (3R,11bS)-9,10-dimethoxy-2,3-bis(2-methylpropyl)-1H,2H,3H,4H,6H,7H,11bH-piperazino[2,1-a]isoquinoline], the Ki is > 500 nM.
As to `CCN1C[C@H]2c3cc(OC)c(OC)cc3CCN2C[C@H]1CC(C)C` [Compound 3-1, (3R,11bR)-2-ethyl-9,10-dimethoxy-3-(2-methylpropyl)-1H,2H,3H,4H,6H,7H,11bH-piperazino[2,1-a]isoquinoline], the Ki was > 500 nM.
With `COc1cc2c(cc1OC)[C@@H]1CN(C)[C@H](CC(C)C)CN1CC2` [Compound 3-2, (3R,11bR)-9,10-dimethoxy-2-methyl-3-(2-methylpropyl)-1H,2H,3H,4H,6H,7H,11bH-piperazino[2,1-a]isoquinoline] the figure was > 500 nM.
Take `COc1cc2c(cc1OC)[C@@H]1CN(CC(C)C)[C@H](CC(C)C)CN1CC2` [Compound 3-3, (3R,11bR)-9,10-dimethoxy-2,3-bis(2-methylpropyl)-1H,2H,3H,4H,6H,7H,11bH-piperazino[2,1-a]isoquinoline]: the Ki is > 500 nM.
As to `CCOc1cc2c(cc1OC)[C@H]1CN(C)[C@H](CC(C)C)CN1CC2` [Compound 5-1, (3R,11bS)-9-ethoxy-10-methoxy-2-methyl-3-(2-methylpropyl)-1H,2H,3H,4H,6H,7H,11bH-piperazino[2,1-a]isoquinoline], the Ki is < 10 nM.
As for `COc1cc2c(cc1OC(C)C)CCN1C[C@@H](CC(C)C)N(C)C[C@H]21` [Compound 5-2, (3R,11bS)-10-methoxy-2-methyl-3-(2-methylpropyl)-9-(propan-2-yloxy)-1H,2H,3H,4H,6H,7H,11bH-piperazino[2,1-a]isoquinoline], the Ki lay in the range of 10 to 500 nM.
As for `COc1cc2c(cc1OCCCF)CCN1C[C@@H](CC(C)C)N(C)C[C@H]21` [Compound 5-3, (3R,11bS)-9-(3-fluoropropoxy)-10-methoxy-2-methyl-3-(2-methylpropyl)-1H,2H,3H,4H,6H,7H,11bH-piperazino[2,1-a]isoquinoline], the Ki is 10 to 500 nM.
As for `COc1cc2c(cc1OCCF)CCN1C[C@@H](CC(C)C)N(C)C[C@H]21` [Compound 5-4, (3R,11bS)-9-(2-fluoroethoxy)-10-methoxy-2-methyl-3-(2-methylpropyl)-1H,2H,3H,4H,6H,7H,11bH-piperazino[2,1-a]isoquinoline], the Ki lay within 10 to 500 nM.
Consider `COc1cc2c(cc1OC1CC1)CCN1C[C@@H](CC(C)C)N(C)C[C@H]21` [Compound 5-5, (3R,11bS)-9-cyclopropoxy-10-methoxy-2-methyl-3-(2-methylpropyl)-1H,2H,3H,4H,6H,7H,11bH-piperazino[2,1-a]isoquinoline], for which the Ki lay in the range of 10 to 500 nM.
Take `CCCOc1cc2c(cc1OC)[C@H]1CN(C)[C@H](CC(C)C)CN1CC2` [Compound 5-6, (3R,11bS)-10-methoxy-2-methyl-3-(2-methylpropyl)-9-propoxy-1H,2H,3H,4H,6H,7H,11bH-piperazino[2,1-a]isoquinoline]: the inhibition constant (Ki) is < 10 nM.
As for `COc1cc2c(cc1OC1CCCC1)CCN1C[C@@H](CC(C)C)N(C)C[C@H]21` [Compound 5-7, (3R,11bS)-9-(cyclopentyloxy)-10-methoxy-2-methyl-3-(2-methylpropyl)-1H,2H,3H,4H,6H,7H,11bH-piperazino[2,1-a]isoquinoline], the Ki was < 10 nM.
With `C=CCOc1cc2c(cc1OC)[C@H]1CN(C)[C@H](CC(C)C)CN1CC2` [Compound 5-8, (3R,11bS)-10-methoxy-2-methyl-3-(2-methylpropyl)-9-(prop-2-en-1-yloxy)-1H,2H,3H,4H,6H,7H,11bH-piperazino[2,1-a]isoquinoline], the inhibition constant (Ki) was < 10 nM.
On to `COc1cc2c(cc1OCC(C)C)CCN1C[C@@H](CC(C)C)N(C)C[C@H]21` [Compound 5-9, (3R,11bS)-10-methoxy-2-methyl-9-(2-methylpropoxy)-3-(2-methylpropyl)-1H,2H,3H,4H,6H,7H,11bH-piperazino[2,1-a]isoquinoline], for which the inhibitory constant (Ki) is < 10 nM.
With `COCCOc1cc2c(cc1OC)[C@H]1CN(C)[C@H](CC(C)C)CN1CC2` [Compound 5-10, (3R,11bS)-10-methoxy-9-(2-methoxyethoxy)-2-methyl-3-(2-methylpropyl)-1H,2H,3H,4H,6H,7H,11bH-piperazino[2,1-a]isoquinoline] the figure was 10 to 500 nM; with `COc1cc2c(cc1OCC1CCC1)CCN1C[C@@H](CC(C)C)N(C)C[C@H]21` [Compound 5-11, (3R,11bS)-9-(cyclobutylmethoxy)-10-methoxy-2-methyl-3-(2-methylpropyl)-1H,2H,3H,4H,6H,7H,11bH-piperazino[2,1-a]isoquinoline], < 10 nM.
In turn, `COc1cc2c(cc1OCCCC#N)CCN1C[C@@H](CC(C)C)N(C)C[C@H]21` [Compound 5-12, 4-{[(3R,11bS)-10-methoxy-2-methyl-3-(2-methylpropyl)-1H,2H,3H,4H,6H,7H,11bH-piperazino[2,1-a]isoquinolin-9-yl]oxy}butanenitrile] showed a Ki of 10 to 500 nM.
Under `COc1cc2c(cc1OCCCC(F)(F)F)CCN1C[C@@H](CC(C)C)N(C)C[C@H]21` [Compound 5-13, (3R,11bS)-10-methoxy-2-methyl-3-(2-methylpropyl)-9-(4,4,4-trifluorobutoxy)-1H,2H,3H,4H,6H,7H,11bH-piperazino[2,1-a]isoquinoline] stands < 10 nM; under `COc1cc2c(cc1OCCCCF)CCN1C[C@@H](CC(C)C)N(C)C[C@H]21` [Compound 5-14, (3R,11bS)-9-(4-fluorobutoxy)-10-methoxy-2-methyl-3-(2-methylpropyl)-1H,2H,3H,4H,6H,7H,11bH-piperazino[2,1-a]isoquinoline], < 10 nM; under `COc1cc2c(cc1OCC1CC1)CCN1C[C@@H](CC(C)C)N(C)C[C@H]21` [Compound 5-15, (3R,11bS)-9-(cyclopropylmethoxy)-10-methoxy-2-methyl-3-(2-methylpropyl)-1H,2H,3H,4H,6H,7H,11bH-piperazino[2,1-a]isoquinoline], < 10 nM.
As to `COc1cc2c(cc1OC1CCC1)CCN1C[C@@H](CC(C)C)N(C)C[C@H]21` [Compound 5-16, (3R,11bS)-9-cyclobutoxy-10-methoxy-2-methyl-3-(2-methylpropyl)-1H,2H,3H,4H,6H,7H,11bH-piperazino[2,1-a]isoquinoline], the Ki is < 10 nM.
With `COc1cc2c(cc1OCC(F)(F)F)CCN1C[C@@H](CC(C)C)N(C)C[C@H]21` [Compound 5-17, (3R,11bS)-10-methoxy-2-methyl-3-(2-methylpropyl)-9-(2,2,2-trifluoroethoxy)-1H,2H,3H,4H,6H,7H,11bH-piperazino[2,1-a]isoquinoline], the Ki is < 10 nM.

Source of the values: patent US11040970B2, “VMAT2 inhibitor compounds and compositions thereof” (Neurocrine Biosciences, Inc., priority 2017, dated 2021).
